Entries after “also recorded” stand apart in the source; their conditions may differ.

As usually defined, the IC50 is the point on the concentration scale where inhibition reaches its midpoint. Read a high IC50 as weaker potency in that assay.

One experiment deals with CD44^high CSCs. Briefly: Sphere assay with CD44high CSCs. Type of experiment: cell-based. Particulars: spheres grown 72 hours before challenge, FIGS. 10A and 10B. As for the experimental part:
A reliable method of measuring the self-renewal capacity of cell population if the ability to be cultured as spheres in the absence of serum or attachment. CD44^high FaDu or Hoechst side population cancer stem cells were cultured in ultra low attachment plates in cancer stem cell media (DMEM/F12, B27 Neurobasal supplement, 20 ng/ml EGF, 10 ng/ml FGF, 4 μg/ml insulin, and 0.4% BSA) to allow spheres formation. Typically, sphere formation was evaluated by microscopy after 10-14 days in culture and spheres with >50 cells were scored.
One of the hallmarks cancer stem cells is their ability to self-renew. A reliable method of measuring the self-renewal capacity of cell populations is the ability to be cultured as spheres in the absence of serum or attachment. To compare the ability of compound 401 to other targeted and chemotherapeutic agents, FACS-isolated CD44^high CSCs were grown as spheres for 72 hours before being challenged with a panel of therapeutic agents. […] Tarceva, Sutent, and Gleevec were added at approximately three times their reported therapeutic concentrations.

The test system of another experiment is DU145 cells. Briefly: Annexin V flow cytometry in DU145 cells. Type of experiment: cell-based. The note with it: 5 hours post-treatment, FIG. 11. How it is done: (§1) Cells treated with or without compound were harvested at 5 hours post treatment for Annexin-V staining. Collected cells were washed with PBS and resuspended in Annexin-V-FITC containing buffer and stained according to manufactures directions (Roche). Annexin-V positive cells were determined by Flow cytometry.
Additionally, DU145 cells were first treated with DMSO or the indicated concentrations of compound 401, then stained with Annexin V, and followed by Flow cytometry analysis 5 hours post-treatment.
(In general: Flow cytometry measures light scatter and fluorescence of single cells or particles in a stream.)

Experiment [1] concerns Hoechst side population cells. Briefly: Annexin V staining of Hoechst side population cells. Type of experiment: cell-based. The note with it: FIG. 9A. How it is done:
as §1
Cells treated with indicated compound for an indicated time were either fixed in 4% formaldehyde or cold methanol for the detection of Annexin V, cleaved caspase 3, or stat3, respectively. Coverslips were air dried and rehydrated in PBS at room temperature for 10 min. Samples were then incubated in blocking buffer (PBS, 5% FBS) for 10 min at room temperature in a humid chamber. Cells were incubated overnight at 4° C. with primary antibodies. After washing, the cells were incubated for 1 hour at room temperature with a 1:500 dilution of FITC conjugated anti-rabbit antibody. Images were captured with a Nikon TE200 microscope equipped with epifluorescence and a SPOT mosaic CCD camerapolyclonal Anti-cleaved caspase 3 antibody (1:100) was obtained from Cell Signaling Technology, Danvers, Mass. Annexin-V-FITC was obtained from Roche, Penzberg, Germany. Polyclonal anti-Stat3 antibody was obtained from Santa Cruz.
The Hoechst side population cells were treated with compound 401 and the mode of cell death was accessed by Annexin V (an early marker for apoptosis) staining.

Experiment [2] relates to Peripheral blood mononuclear cells (PBMCs). The experiment can be described thus: MTT cell viability of normal PBMCs. Type of experiment: cell-based. The note with it: PBMC, 24 hour incubation. How it is done: For 3-(4,5 dimethylthiazol-2-yl)-2,5-diphenyltetrazolium (MTT) (Sigma-Aldrich, St. Louis, Mo.) analysis, cells were plated in 96 well plates at 10,000 cells per well. 24 hours after plating, compound was added to cells at indicated doses. 22 hours following compound addition, MTT was added to each well (0.5 mg/ml, final concentration) and plates were incubated for an additional 2 hours at 37° C. Medium was then aspirated and the formazan product was solubilized in 100 μl of isopropyl alcohol. The absorbance of each well was measured at 570 nm using a microplate reader.
Under assay conditions that result in the death of virtually all cancer cells, normal cells remain substantially viable.

The subject of a further experiment is CD34^+ BM Myeloid. The experiment can be described thus: Colony formation assay, CD34+ bone marrow myeloid lineage. Particulars: normal cells, 6 hours incubation. Type of experiment: cell-based. An excerpt:
In a similar fashion to PMBCs, CD34^+ bone marrow hematopoietic stem cells were spared when treated with compound 401.

Experiment [3] concerns Stat3. The experiment can be described thus: Stat3 DNA binding assay (EMSA) with HeLa nuclear extracts. Type of experiment: biochemical. The note with it: HeLa nuclear extract, FIG. 7A/7B. How it is done:
Electrophoretic mobility shift assay (EMSA) was performed as described by the manufacturer (Li-Cor Biosciences, Lincoln, Nebr.). Briefly, nuclear extracts were made from HeLa cells using the NucBuster Protein Extraction Kit as described by the manufacturer (EMD Biosciences, San Diego, Calif.). 5 μg of nuclear extract was pre-incubated with the indicated dose of indicated compound for 30 minutes prior to a 15-minute incubation with the IR700-labeled consensus Stat3 oligonucleotide. Samples were then electrophoresed on a polyacrylamide gel and directly scanned using the Odyssey infrared imaging system (Li-Cor Biosciences). For the enzyme-linked immunosorbent assay (ELISA), 5 μg of nuclear extract was preincubated with indicated concentration of indicated compound for 30 minutes prior to the addition of biotinylated oligo (5′-Biotin-[…]-3′, SEQ ID NO. 1). Stat3-DNA complexes were then captured on streptavidin coated 96 well plates (Pierce, Rockford, Ill.). Bound complexes were then incubated with Stat3 polyclonal antibody (Santa Cruz Biotechnology, Santa Cruz, Calif.) followed by anti-rabbit HRP conjugated secondary antibody (GE Healthcare, Pittsburgh, Pa.). Bound antibody was then visualized by addition of TMB substrate (Pierce) and absorbance measured at 450 nm,
Nuclear extracts from HeLa cells, which contain constitutively activated Stat3 as detected by phoshporylation at the tyrosine 705 residue, were used to perform Stat3 EMSAs to monitor Stat3 DNA binding activity. Nuclear extracts were incubated with indicated compound prior to incubation with IR700-labeled Stat3 consensus oligonucleotide. Binding of Stat3 to the oligonucleotide was monitored by gel electrophoresis and detection using a LiCor Odyssey infrared scanner.

The subject of experiment [4] is Stat3. Briefly: Stat3-luciferase (Stat3-Luc) reporter assay, OSM-stimulated HeLa cells. Type of experiment: cell-based. Particulars: FIG. 6. How it is done:
HeLa Cells were co-transfected with Stat3-luciferase (Stat3-Luc) reporter vector (Panomics, Fremont, Calif.) and Renilla luciferase (Promega, Madison, Wis.) using Lipofectamine 2000 as described by the manufacturer (Invitrogen). Following transfection, cells were maintained in medium containing 0.5% FBS for 24 hours. Cells were then treated with the indicated compound for 30 minutes prior to the addition of 25 ng/ml oncostatin M (OSM) (R&D Systems, Minneapolis, Minn.) to the medium. 6 hours following OSM addition, cells were harvested and levels of firefly and renilla luciferase were measured using the Dual-Glo Luciferase Assay System as described by the manufacturer (Promega).
Compounds were tested for their ability to inhibit Stat3 transcription activation activity in cells using a Stat3-luciferase (Stat3-luc) reporter construct. Cells transfected with Stat3-luc were cultured in reduced serum medium prior to addition of indicated compound for 30 minutes. Cells were then stimulated with 25 ng/ml oncostatin M (OSM) for 6 hours followed by detection of Stat3-luc reporter activity. […] AG490, a known inhibitor of the Jak-Stat pathway, was included as a positive control for Stat3 inhibition.
In general terms: In a reporter assay the amount or activity of a reporter protein is the signal.

For `CC(=O)c1cc2c(o1)C(=O)c1ccccc1C2=O` [Compound 401, 2-acetylnaphtho[2,3-b]furan-4,9-dione], the “prevention of sphere proliferation” value in the experiment on CD44^high CSCs was “effective at preventing sphere proliferation”. In addition, the “Annexin V staining” value in the experiment on DU145 cells is on record as “dose-dependent increase in the Annexin V staining”. In experiment [1], the “mode of cell death by Annexin V staining” value was “the dying cells are Annexin V positive”. Besides, the IC50 in experiment [2] is 14 µM; in the experiment with CD34^+ BM Myeloid it was above 30 µM. Moreover, the “inhibition of Stat3 DNA binding activity” value with Stat3 [3] is “Dose dependent inhibition of Stat3 DNA binding; also recorded: can inhibit Stat3's DNA binding activity”. Also, the “inhibition of OSM-stimulated Stat3 reporter activity” value with Stat3 [4] is listed as “inhibited OSM-stimulated Stat3 reporter activity”.

The record behind these values is patent US20210024482A1, “Novel Group of STAT3 Pathway Inhibitors and Cancer Stem Cell Pathway Inhibitors” (Sumitomo Dainippon Pharma Oncology, Inc., priority 2007, published 2021).
